Test results from ChEMBL document CHEMBL3994582, “A2B adenosine receptor antagonists: Design, synthesis and biological evaluation of novel xanthine derivatives” (Eur J Med Chem, 2017).
Calls of active or inactive are those of the source. The calls are words filed in the database; no cut-off is given here.

Experiments:
Adenosine receptor A2b [1] = molecular target: T1, Adenosine receptor A2b (Homo sapiens, UniProt P29275); test: Displacement of [3H]-MRS-1754 from human adenosine receptor A2b expressed in HEK293 cell membranes after 90 mins by liquid scintillation counting method
T1 sequence (P29275 whole entry): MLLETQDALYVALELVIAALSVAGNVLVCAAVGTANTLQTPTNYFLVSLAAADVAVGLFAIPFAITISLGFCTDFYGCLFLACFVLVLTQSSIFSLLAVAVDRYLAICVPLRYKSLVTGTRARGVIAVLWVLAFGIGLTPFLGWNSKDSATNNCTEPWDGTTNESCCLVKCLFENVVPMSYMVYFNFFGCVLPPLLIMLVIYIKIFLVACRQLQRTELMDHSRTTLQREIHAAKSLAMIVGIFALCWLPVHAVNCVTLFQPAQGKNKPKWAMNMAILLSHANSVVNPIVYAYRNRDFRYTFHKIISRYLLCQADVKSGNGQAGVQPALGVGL

[2] = molecular target: T2, Adenosine receptor A1 (Homo sapiens) (UniProt P30542); test: Displacement of [3H]DPCPX from human adenosine receptor A1 expressed in HEK293 cell membranes at 0.1 uM after 90 mins by liquid scintillation counting method relative to control
T2 sequence (whole entry): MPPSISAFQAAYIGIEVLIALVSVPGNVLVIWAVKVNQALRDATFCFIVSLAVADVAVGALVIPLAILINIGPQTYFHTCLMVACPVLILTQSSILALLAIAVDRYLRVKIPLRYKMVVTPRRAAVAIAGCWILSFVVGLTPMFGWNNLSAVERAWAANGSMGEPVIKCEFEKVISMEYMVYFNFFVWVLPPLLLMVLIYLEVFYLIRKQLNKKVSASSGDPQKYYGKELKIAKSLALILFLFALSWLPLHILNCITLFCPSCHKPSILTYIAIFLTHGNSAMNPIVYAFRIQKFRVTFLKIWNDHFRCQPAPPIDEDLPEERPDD

Adenosine receptor A2a [3] = molecular target: T3, Adenosine receptor A2a (Homo sapiens, UniProt P29274); test: Displacement of [3H]-ZM-241385 from human adenosine receptor A2a expressed in HEK293 cell membranes at 0.1 uM after 90 mins by liquid scintillation counting method relative to control
[4] = molecular target: T4, Adenosine receptor A3 (Homo sapiens) (UniProt P0DMS8); test: Displacement of [3H]-HEM-ADO from human adenosine receptor A3 expressed in HEK293 cell membranes at 1 uM after 90 mins by liquid scintillation counting method relative to control
T4 sequence (whole entry): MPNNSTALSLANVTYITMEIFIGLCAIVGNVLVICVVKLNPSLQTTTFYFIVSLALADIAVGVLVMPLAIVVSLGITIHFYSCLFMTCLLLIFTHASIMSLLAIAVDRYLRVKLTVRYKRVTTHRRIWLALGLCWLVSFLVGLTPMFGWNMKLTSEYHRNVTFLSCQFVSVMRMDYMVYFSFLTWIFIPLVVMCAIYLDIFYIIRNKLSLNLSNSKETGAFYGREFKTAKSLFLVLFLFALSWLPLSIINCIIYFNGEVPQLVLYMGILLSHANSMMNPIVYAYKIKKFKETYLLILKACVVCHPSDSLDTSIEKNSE

[5] = Solubility of the compound; type: physicochemical
Liver [6] = test: Metabolic stability in mouse liver microsomes assessed as metabolic rate per mg protein preincubated for 5 mins followed by NADPH addition measured up to 30 mins by LC-MS/MS analysis; type: ADME, microsome; settings: 0.5 h
Liver [7] = test: Metabolic stability in human liver microsomes assessed as metabolic rate per mg protein preincubated for 5 mins followed by NADPH addition measured up to 30 mins by LC-MS/MS analysis; type: ADME, microsome; settings: 0.5 h
Adenosine receptor A1 = molecular target: T5, Adenosine receptor A1 (Homo sapiens, UniProt P30542); test: Displacement of [3H]DPCPX from human adenosine receptor A1 expressed in HEK293 cell membranes after 90 mins by liquid scintillation counting method
T5 sequence (P30542 whole entry): T2 sequence (whole entry)

Adenosine receptor A2a [8] = molecular target: T3, Adenosine receptor A2a; test: Displacement of [3H]-ZM-241385 from human adenosine receptor A2a expressed in HEK293 cell membranes after 90 mins by liquid scintillation counting method
Homo sapiens [9] = organism: Homo sapiens; test: Selectivity ratio of Ki for human adenosine receptor A1 expressed in HEK293 cell membranes to Ki for human adenosine receptor A2b expressed in HEK293 cell membranes; type: cell-based
Homo sapiens [10] = organism: Homo sapiens; test: Selectivity ratio of Ki for human adenosine receptor A2a expressed in HEK293 cell membranes to Ki for human adenosine receptor A2b expressed in HEK293 cell membranes; type: cell-based
Adenosine receptor A2b [11] = molecular target: T1, Adenosine receptor A2b; test: Antagonist activity at human adenosine receptor A2b expressed in HEK293 cells assessed as inhibition of NECA-induced cAMP level preincubated for 15 mins followed by NECA stimulation for 15 mins by HTRF assay; type: functional, cell-based
[12] = Cmax in C57BL/6J mouse at 10 mg/kg, po via gavage by LC-MS/MS analysis; type: ADME, organism-based; design: dose 10 mg/kg, route oral; settings: in vivo
[13] = AUC(0 to t) in C57BL/6J mouse at 10 mg/kg, po via gavage by LC-MS/MS analysis; type: ADME, organism-based; settings: in vivo
[14] = Half life in C57BL/6J mouse at 10 mg/kg, po via gavage by LC-MS/MS analysis; type: ADME, organism-based; settings: in vivo
[15] = Oral bioavailability in C57BL/6J mouse at 10 mg/kg via gavage by LC-MS/MS analysis; type: ADME, organism-based; settings: in vivo
[16] = Inhibition of CYP450 (unknown origin); type: ADME, Homo sapiens
MDCK = test: Cytotoxicity against MDCK cells; settings: Canis lupus familiaris
HepG2 = test: Cytotoxicity against human HepG2 cells
Mus musculus [17] = test: (§1) Antiallergic activity in Balb/c mouse model of ovalbumin-induced allergic asthma assessed as inhibition of NECA-induced airway hyperresponsiveness in ovalbumin sensitized mouse at 3 mg/kg, ip bid administered 1 hr before OVA challenge for 60 mins followed by test compound treatment 5 hrs after OVA challenge on day 12 to 15 measured on day 15; type: functional, organism-based
Mus musculus [18] = test: as §1, with “total cell count in BALF” for “NECA-induced airway hyperresponsiveness”; type: functional, organism-based

T3 sequence (P29274 whole entry): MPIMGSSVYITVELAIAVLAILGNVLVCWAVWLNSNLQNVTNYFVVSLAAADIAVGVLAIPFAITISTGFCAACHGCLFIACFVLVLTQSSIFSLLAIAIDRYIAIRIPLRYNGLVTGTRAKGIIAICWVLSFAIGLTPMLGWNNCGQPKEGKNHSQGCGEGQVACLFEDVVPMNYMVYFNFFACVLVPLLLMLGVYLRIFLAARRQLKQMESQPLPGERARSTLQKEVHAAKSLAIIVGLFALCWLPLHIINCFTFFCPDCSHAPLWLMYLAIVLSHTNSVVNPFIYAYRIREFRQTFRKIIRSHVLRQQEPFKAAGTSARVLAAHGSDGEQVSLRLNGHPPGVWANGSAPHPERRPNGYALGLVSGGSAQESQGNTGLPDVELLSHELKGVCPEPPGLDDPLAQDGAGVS

Compound	Ki (Adenosine receptor A2b [1])	inhibition [2]	inhibition (Adenosine receptor A2a [3])	inhibition [4]	solubility [5]	Drug metabolism (Liver [6])	Drug metabolism (Liver [7])	Ki (Adenosine receptor A1)	Ki (Adenosine receptor A2a [8])	Ki (Adenosine receptor A2b [11])	Ratio Ki (Homo sapiens [9])	Ratio Ki (Homo sapiens [10])	further results
CCCn1c(=O)c2[nH]c(-c3cc(OCC4CC(=O)N(c5ccc(C(F)(F)F)cc5)C4)no3)nc2n(CCC)c1=O (configuration not stated)	12.8 nM	0%	18%	0%		0.04 nmol/min/mg	0.07 nmol/min/mg	4200 nM	2900 nM	540 nM	328	226	
CCCn1c(=O)c2[nH]c(-c3cnn(CC4CCN(c5ccc(OC(F)(F)F)cc5)C4=O)c3)nc2n(CCC)c1=O (configuration not stated)	6 to 8 nM	51%	7%	32%		0.03 nmol/min/mg	0.02 nmol/min/mg	340 nM	36 nM	191 nM	56	6	
CCCn1c(=O)c2[nH]c(-c3cnn(CC4CC(=O)N(c5ccc(F)cc5)C4)c3)nc2n(CC)c1=O (configuration not stated)	12 nM	22%	33%	0%		0.15 nmol/min/mg	0 nmol/min/mg	346 nM	192 nM	4 nM	28	16	
CCCn1c(=O)c2[nH]c(-c3cnn(CC4CC(=O)N(c5ccc(OC)cc5)C4)c3)nc2n(CC)c1=O (configuration not stated)	16 nM	15%	21%	14%		0.07 nmol/min/mg	0.11 nmol/min/mg	711 nM	486 nM	14 nM	44	30	
CCCn1c(=O)c2[nH]c(-c3ccc(OCC4CC(=O)N(c5cccc(C(F)(F)F)c5)C4)nc3)nc2n(CCC)c1=O (configuration not stated)	8.7 nM	4%	71%	26%	Insoluble	0 nmol/min/mg	0.05 nmol/min/mg						
CCCn1c(=O)c2[nH]c(-c3ccc(OCC4CC(=O)N(c5cccc(F)c5)C4)cc3)nc2n(CCC)c1=O (configuration not stated)	9 nM	33%	89%	19%	Insoluble								

Continued, in another order:

Ki (Adenosine receptor A2b [1])	inhibition [2]	inhibition (Adenosine receptor A2a [3])	inhibition [4]	solubility [5]	Drug metabolism (Liver [6])	Drug metabolism (Liver [7])	Ki (Adenosine receptor A1)	Ki (Adenosine receptor A2a [8])	Ki (Adenosine receptor A2b [11])	Compound	Ratio Ki (Homo sapiens [9])	Ratio Ki (Homo sapiens [10])	further results
4 nM	30%	80%	53%	Insoluble						CCCn1c(=O)c2[nH]c(-c3ccc(OCC4CC(=O)N(c5ccc(F)cc5)C4)nc3)nc2n(CCC)c1=O (configuration not stated)			
7.5 nM	1%	80%	13%	Insoluble	0.06 nmol/min/mg	0.09 nmol/min/mg				CCCn1c(=O)c2[nH]c(-c3ccc(OCC4CC(=O)N(c5cccc(C(F)(F)F)c5)C4)cc3)nc2n(CCC)c1=O (configuration not stated)			
1 nM	29%	60%	23%	Insoluble	0.01 nmol/min/mg	0.05 nmol/min/mg				CCCn1c(=O)c2[nH]c(-c3ccc(OCC4CC(=O)N(c5ccc(C(F)(F)F)cc5)C4)cc3)nc2n(CCC)c1=O (configuration not stated)			
5.4 nM	29%	89%	44%	Insoluble						CCCn1c(=O)c2[nH]c(-c3ccc(OCC4CC(=O)N(c5ccc(F)cc5)C4)cc3)nc2n(CCC)c1=O (configuration not stated)			
4 nM	6%	4%	4%		0.16 nmol/min/mg	0.08 nmol/min/mg	670 nM	460 nM	8 nM	CCCn1c(=O)c2[nH]c(-c3cnn(CC4CC(=O)N(c5ccc(C(F)(F)F)cc5)C4)c3)nc2n(CC)c1=O (configuration not stated)	167	115	Cmax [12]: 3.8 µM; AUC(0-t) [13]: 2.9 µM·h; half-life [14]: 0.9 h; bioavailability [15]: 11%
1.5 nM	32%	37%	0%		0.04 nmol/min/mg	0.16 nmol/min/mg	177 nM	57 nM	4 nM	CCCn1c(=O)c2[nH]c(-c3cnn(CC(=O)N4CCN(c5cccc(C(F)(F)F)c5)CC4)c3)nc2n(CCC)c1=O	118	38	Cmax [12]: 44 µM; AUC(0-t) [13]: 51 µM·h; half-life [14]: 1.9 h; bioavailability [15]: 65%; IC50 [16]: > 25000 nM; IC50 (MDCK): > 100000 nM; IC50 (HepG2): > 100000 nM; inhibition (Mus musculus [17]): Active; inhibition (Mus musculus [18]): Active
1 nM	49%	52%	0%		0.16 nmol/min/mg	0.02 nmol/min/mg	108 nM	124 nM	0.9 nM	CCCn1c(=O)c2[nH]c(-c3cnn(CC4CC(=O)N(c5ccc(C(F)(F)F)cc5)C4)c3)nc2n(CCC)c1=O (configuration not stated)	108	124	Cmax [12]: 16.7 µM; AUC(0-t) [13]: 21 µM·h; half-life [14]: 2.4 h; bioavailability [15]: 27%
3 nM	25%	46%	0%	Insoluble	0 nmol/min/mg	0.02 nmol/min/mg	> 800 nM	53 nM	71 nM	CCCn1c(=O)c2[nH]c(-c3ccc(OCC4CC(=O)N(c5ccc(C(F)(F)F)cc5)C4)nc3)nc2n(CCC)c1=O (configuration not stated)	> 266	17	
4.6 nM	17%	85%	53%	Insoluble						CCCn1c(=O)c2[nH]c(-c3ccc(OCC4CC(=O)N(c5cccc(F)c5)C4)nc3)nc2n(CCC)c1=O (configuration not stated)			
